Experimental data: patent US10597398B2, “Suppression and regeneration promoting effect of low molecular weight compound on cancer and fibrosis” (NATIONAL UNIVERSITY CORPORATION TOTTORI UNIVERSITY, priority 2015, dated 2020)

Key:
Format in all cases: cell-based, human
LX-2 cells [1] = assay: Growth inhibitory effect on LX-2 cells; conditions: 100 μM
Wnt/β-catenin signaling [2] = assay: Inhibitory effect on Wnt/β-catenin signaling in mesenchymal stem cells (E7-TCF4 luciferase)
Experimental: A pTCF4-CMVpro-GL4.20 plasmid vector, having 3 copies of TCF4 motifs (CCT TTG ATC) upstream of aCMV promoter in a multiple cloning site of pGL4.20 (Promega Corp., Fitchburg, Wis.), was linearized and stably transfected into UE7T-13 cells to prepare E7-TCF4 cells. Also, a pCMVpro-GL4.20 plasmid vector, having a CMV promoter in a multiple cloning site of pGL4.20, was linearized and stably transfected into UE7T-13 cells. The resulting stable cells (E7-CMV cells) were cultured, like UE7T-13 cells, in 10% FBS/DMEM containing 0.25 μg/mL puromycin.
UE7T-13 cells were used to measure Wnt/β-catenin signaling activity. The concentrations of the respective compounds were as described in FIG. 42. Each control sample used was 0.1% DMSO, a solvent for each compound.
First, 70 to 90% confluent E7-TCF4 cells and E7-CMV cells were harvested and seeded (n=3) at 1.6758×10^4 cells/well of a 24-well plate (9.0×10^3 cells/cm^2). One day after that, each compound was added to the cells and the mixture was cultured at 37° C. Day 4 after the compound addition, the culture medium was changed.
At day 1, 4, or 8 after the compound treatment, the culture medium was discarded, and 100 μL of room temperature 5×Passive Lysis Buffer (PLB), which had been diluted 5-fold with MilliQ water, was added to each well. Next, the plate was shaken at room temperature for 15 min and was then frozen at −30° C. overnight. A Luciferase Assay Substrate was diluted with 10 mL of room temperature Luciferase Assay Buffer II to prepare Luciferase Assay Reagent II (LARII). The frozen PLB lysate samples were thawed and permeabilized for 15 min. Then, 10 μL aliquots were added to wells of a 96-well white plate. While 50 μL aliquots of LARII were each added to each well, luminescence was quantified by using a 1420 multi-label counter ARVO MX to determine firefly luciferase activity.

LX-2 cells [3] = assay: Anti-fibrosis effect, summary statements on Example 3 (marker not specified); conditions: concentration even lower than that of IC-2
Source text: α-Smooth muscle actin (α-SMA), a fibrosis marker, was used as an indicator, and RNA was collected from LX-2 cells treated with each low-molecular-weight compound. Next, an inhibitory effect on fibrosis was examined by real-time RT-PCR.
In addition, instead of α-SMA, another fibrosis marker collagen, type I, alpha 1 (COL1A1) was used as an indicator, and substantially the same protocol was repeated. The concentrations of each compound used were as described in FIG. 34. Each control sample used was 0.1% DMSO, a solvent for each compound. Here, COL1A1 primers used were 5′-CCT CCA GGG CTC CAA CGA G-3′ and 5′-TCAATCACTGTCTTGCCCCA-3′. The annealing was performed at 58° C. for 5 sec. The measurement results were obtained by dividing the calculated value for the COL1A1 gene by the calculated value for the GAPDH gene.

HuH-7 cells = assay: Growth inhibitory effect on cancer cells (WST assay), Example 2.3; conditions: for IC50: HuH-7 cells, WST assay, concentrations 0-50 μM, control 0.1% DMSO; for IC50 compared with IC-2: comparison with IC-2
Experimental: HuH-7 cells, a human liver cancer cell line, were cultured on 10-cm cell culture dishes (TPP Techno Plastic Products AG, Trasadingen, Switzerland) by using DMEM under conditions at 5% CO2, 37° C., and 100% humidity. When the cells were 70 to 90% confluent, 200 μL of 0.25% Trypsin/1 mM EDTA solution, which had been prepared by diluting the stock solution 10-fold with PBS (−), was added to detach the cells. Then, the cells were centrifuged at 1000 rpm for 3 min at room temperature. The cells recovered were subcultured at a 1:4 split ratio.
First, 70 to 90% confluent HuH-7 cells were harvested and seeded (n=3) at 5×10^3 cells/well of a 96-well plate (TPP). After 24 h, each compound was added to the cells and the mixture was cultured at 37° C. The concentrations of each compound were 0, 10, 20, 30, 40, and 50 μM. For IC-2-506-1, however, the concentrations used were 0, 10, 20, 25, 30, 40, and 50 μM. Each control sample (0 μM) used was 0.1% DMSO, a solvent for each compound.
Next, 0, 24, 48, and 96 h after the compound treatment, 100 μIL of DMEM-diluted 10% Cell Counting Kit-8 (DOJINDO LABORATORIES, Kumamoto) was added. The mixture was incubated at 37° C. for 60 min and its absorbance (at a measurement wavelength of 450 nm/control wavelength of 600 nm) was measured by using a Sunrise Rainbow RC (Tecan Group Ltd., Mannedorf, Switzerland). Absorbance for the cells alone was calculated by subtracting, from the reading obtained, absorbance for 10% Cell Counting Kit-8 alone.
The “*” in figures indicates a significant difference of p<0.05 between 0.1% DMSO and each compound; and the “**” indicates a significant difference of p<0.01 (the same applies to all the figures in Examples).

mesenchymal stem cell = assay: Hepatocyte differentiation-inducing effect, summary statements on Example 4 (readout not specified); conditions: low concentration
Source text: Albumin, a hepatocyte marker, was used as an indicator, and RNA was collected from cells treated with each compound. Next, a hepatocyte differentiation-inducing effect was examined by real-time RT-PCR. The concentrations of the respective compounds were as described in FIG. 35. Each control sample used was 0.1% DMSO, a solvent for each compound.
By using urea synthesis, a hepatocyte function, as an indicator, a hepatocyte differentiation-inducing effect of each compound was investigated.
The cells treated with each compound were subjected to immunofluorescence analysis of albumin, a hepatocyte marker, to investigate a hepatocyte differentiation-inducing effect. The concentrations of the respective compounds were as described in FIG. 37. Each control sample used was 0.1% DMSO, a solvent for each compound.
By using glycogen synthesis, a hepatocyte function, as an indicator, a hepatocyte differentiation-inducing effect of each compound was investigated.

[4] = test system: cancer stem cells (CD44) in HuH-7 cells; assay: Inhibitory effect on cancer stem cells (FCM analysis of CD44), Example 2.4; conditions: for inhibitory effect on cancer stem cells compared with IC-2: comparison with IC-2
Experimental: CD44, a cancer stem cell marker, was used as an indicator to examine an inhibitory effect of each compound on cancer stem cells. The concentrations of the respective compounds were as described in FIG. 32. Each control sample used was 0.1% DMSO, a solvent for each compound. In the figures, the “‡” indicates a significant difference of p<0.01.
First, 70 to 90% confluent HuH-7 cells were harvested and seeded at 1.5×10^6 cells per 10-cm cell culture dish. After 24 h, each compound was added to the cells and the mixture was cultured at 37° C. At 48 h after the compound treatment, the cells were harvested from each culture dish. The cells were centrifuged at 1000 rpm and at 4° C. for 3 min to remove a supernatant and were then washed twice with 1 mL of 0.5% FBS/2 mM EDTA/PBS. Next, the cells were suspended in 500 μL of 5% BSA/0.5% FBS/2 mM EDTA/PBS for blocking at 4° C. for 15 min. Then, 5 μL of a mouse anti-human CD44 monoclonal antibody (156-3C11, Cell Signaling Technology Inc., Danvers, Mass.) was added to 500 μL of the cell suspension. The mixture was resuspended and subjected to a primary antibody reaction in a dark room at 4° C. for 30 min. After that, the cells were washed 3 times with 1 mL of 0.5% FBS/2 mM EDTA/PBS. Subsequently, 100 μL of Alexa Fluor 488-labeled IgG (H+L) (ab150113, Abcam Ltd., Cambridge, UK), which had been diluted 200-fold with 5% BSA/0.5% FBS/2 mM EDTA/PBS, was added and the cells were suspended. Then, a secondary antibody reaction was carried out in a dark room at 4° C. for 30 min. After that, the cells were washed 3 times with 1 mL of 0.5% FBS/2 mM EDTA/PBS. Thereafter, the cells were suspended in 500 μL of 0.5% FBS/2 mM EDTA/PBS and were made to pass through a 40 μm-mesh column (Becton, Dickinson and Company, Franklin Lakes, N.J.). A Beckman Coulter-Moflo XDP (Beckman Coulter Inc., Fullerton, Calif.) was used for analysis. Following the analysis, further analysis was conducted by adding 2 μL of 0.25 mg/mL Propidium Iodide (PI). The same experiment was repeated four times.

Wnt/β-catenin signaling [5] = assay: Inhibitory effect on Wnt/β-catenin signaling in liver cancer cells (HuH7-TCF4 luciferase); conditions: concentration equal to or lower than that of IC-2
Experimental: A pTCF4-CMVpro-GL4.20 plasmid vector, which had been constructed by inserting 3 copies of TCF4 motifs (CCT TTG ATC) upstream of a CMV promoter into a multiple cloning site of pGL4.20 (Promega Corp., Fitchburg, Wis.), was linearized and stably transfected into the HuH-7 cells. The resulting stable cells (HuH7-TCF4 cells) and HuH-7 cells were likewise cultured.
While each compound was added at concentrations where the growth of HuH-7 cells was reduced to about 50% or less, Wnt/β-catenin signaling activity was measured. The concentrations of the respective compounds were as described in FIG. 40. Control samples used were 0.1% DMSO, a solvent for each compound, and 0.5 μM 5-FU.
First, 70 to 90% confluent HuH7-TCF4 cells were harvested and seeded (n=3) at 5.0×10^4 cells/well of a 24-well plate (TPP). After 24 h, each compound was added to the cells and the mixture was cultured at 37° C.
At 48 h after the compound treatment, the culture medium was discarded, and 100 μL of room temperature 5×Passive Lysis Buffer (PLB) (Promega Corp., Fitchburg, Wis.), which had been diluted 5-fold with MilliQ water, was added to each well. Next, the plate was shaken at room temperature for 15 min and was then frozen at −30° C. overnight. A Luciferase Assay Substrate was diluted with 10 mL of room temperature Luciferase Assay Buffer II to prepare Luciferase Assay Reagent II (LARII) (Promega). The frozen PLB lysate samples were thawed and permeabilized for 15 min. Then, 10 μL aliquots were added to wells of a 96-well white plate (Corning Inc., Corning, N.Y.). While 50 μL aliquots of LARII were each added to each well, luminescence was quantified by using a 1420 multi-label counter ARVO MX (PerkinElmer Singapore Pte Ltd., Singapore) to determine firefly luciferase activity. Note that a significant difference was evaluated by using (two-tailed) Student's t-test. The “*” in figures indicates a significant difference of p<0.05 between 0.1% DMSO and each compound; and the “**” indicates a significant difference of p<0.01 (the same applies to all the figures in Examples).

| SMILES | IC50 (HuH-7 cells) [µM] | IC50 compared with IC-2 (HuH-7 cells) | hepatocyte-inducing effect at low concentration (mesenchymal stem cell) | growth inhibitory effect on LX-2 cells (LX-2 cells [1]) | anti-fibrosis effect compared with IC-2, lower concentration (LX-2 cells [3]) | inhibitory effect on cancer stem cells compared with IC-2 [4] | inhibitory effect on Wnt/β-catenin signaling pathway in liver cancer cells compared with IC-2 (Wnt/β-catenin signaling [5]) | further results |
| --- | --- | --- | --- | --- | --- | --- | --- | --- |
| NC(=O)N1CCC(=O)N2C(Cc3ccccc3)C(=O)N(Cc3cccc4ccccc34)CC12 (stereo not shown) [Compound 9b-CONH2] | – | – | – | Neither 100 μM of 9b nor 9b-CONH2 exhibited a growth inhibitory effect | – | – | – | – |
| O=C1C(Cc2ccccc2)N2C(=O)CCNC2CN1Cc1cccc2ccccc12 (stereo not shown) [Compound 9b] | – | – | – | Neither 100 μM of 9b nor 9b-CONH2 exhibited a growth inhibitory effect | – | – | – | inhibitory effect on Wnt/β-catenin signaling in mesenchymal stem cells (Wnt/β-catenin signaling [2]; E7-TCF4 cells, day 8 after compound addition, compared with control 0.1% DMSO): all the compounds except for IC-2-Ar-OMe, 9b, and 7c-NT exhibited a significant inhibitory effect |

Further lines, with some results ahead:

| IC50 (HuH-7 cells) [µM] | IC50 compared with IC-2 (HuH-7 cells) | hepatocyte-inducing effect at low concentration (mesenchymal stem cell) | SMILES | growth inhibitory effect on LX-2 cells (LX-2 cells [1]) | anti-fibrosis effect compared with IC-2, lower concentration (LX-2 cells [3]) | inhibitory effect on cancer stem cells compared with IC-2 [4] | inhibitory effect on Wnt/β-catenin signaling pathway in liver cancer cells compared with IC-2 (Wnt/β-catenin signaling [5]) | further results |
| --- | --- | --- | --- | --- | --- | --- | --- | --- |
| 22.2 | lower IC50 than IC-2 | exerted a hepatocyte-inducing effect | O=C1C(Cc2ccccc2)N2C(=O)CCN(C(=O)NCc3ccc(F)cc3)C2CN1Cc1cccc2ccccc12 (stereo not shown) [IC-2-F] | – | more potent anti-fibrosis effect | more potent inhibitory effect on cancer stem cells than IC-2 | more potent inhibitory effect | – |
| 28.1 | – | – | O=C1C(Cc2ccccc2)N2C(=O)CCN(C(=O)NCc3ccc([N+](=O)[O-])cc3)C2CN1Cc1cccc2ccccc12 (stereo not shown) [IC-2-NO2] | – | – | more potent inhibitory effect on cancer stem cells than IC-2 | more potent inhibitory effect | inhibitory effect on Wnt/β-catenin signaling pathway in mesenchymal stem cells compared with IC-2 (Wnt/β-catenin signaling [2]; concentration equal to or lower than that of IC-2): more potent inhibitory effect |
| 11.8 | lower IC50 than IC-2 | exerted a hepatocyte-inducing effect | CC(C)(C)[Si](C)(C)Oc1ccc(CNC(=O)N2CCC(=O)N3C(Cc4ccccc4)C(=O)N(Cc4cccc5ccccc45)CC23)cc1 (stereo not shown) [IC-2-OTBS] | – | more potent anti-fibrosis effect | – | – | anti-tumor effect compared with IC-2 (HuH-7 cells; at a concentration lower than that of IC-2): more potent anti-tumor effect; inhibitory effect on cancer stem cells at a concentration lower than that of IC-2 ([4]; concentration even lower than that of IC-2): exerted an inhibitory effect on cancer stem cells |
